The values below come from paper PMC3935609 (Biochemistry, 2013).

Experiment [1] has as its target T1, GLIC (Gloeobacter violaceus ligand-gated ion channel) (Gloeobacter violaceus, UniProt Q7NDN8).
T1 sequence (Q7NDN8 44-359): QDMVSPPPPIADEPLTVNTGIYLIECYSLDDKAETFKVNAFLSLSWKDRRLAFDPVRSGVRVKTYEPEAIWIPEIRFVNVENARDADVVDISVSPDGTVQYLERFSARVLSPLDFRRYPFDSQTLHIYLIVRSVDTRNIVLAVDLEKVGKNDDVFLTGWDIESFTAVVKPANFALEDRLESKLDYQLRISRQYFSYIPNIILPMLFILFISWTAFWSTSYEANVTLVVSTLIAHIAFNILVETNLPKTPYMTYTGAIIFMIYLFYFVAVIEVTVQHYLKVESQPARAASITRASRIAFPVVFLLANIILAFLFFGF
In words: [3H]AziPm photoaffinity labeling of purified GLIC at pH […] with Edman sequencing. Type of experiment: cell-based.

For experiment [2], the target named is T1, GLIC (Gloeobacter violaceus ligand-gated ion channel). Nature of the experiment: competition. Type of experiment: cell-based.

SMILES strings stand for the structures.

By IC50 is commonly meant the point on the concentration scale where inhibition reaches its midpoint. On to `CC(C)c1ccc(C2(C(F)(F)F)N=N2)cc1O` [AziPm, 2-isopropyl-5-[3-(trifluoromethyl)-3H-diazirin-3-yl]phenol], for which, in experiment [1], half-maximal inhibition (IC50) required 51.4 ± 5.3 µM. On to `CC(C)c1cccc(C(C)C)c1O` [PPF, Propofol], for which the IC50 in experiment [2] worked out at 21.4 ± 1.2 µM.
